The source made the active and inactive calls. The rule behind the calls is not given here.
Experiments:
C2C12 [1] = experiment: Effect on BIN1 splicing patterns in mouse C2C12 cells at 1 to 20 uM by RT-qPCR method; assay type: ADME, cell-based; conditions: c2c12, 20 µM
C2C12 [2] = experiment: Binding affinity to r(CCUG)300 RNA (unknown origin) in mouse C2C12 cells transfected with BIN1 assessed as rescue of BIN1 splicing defect at 10 uM after 72 hrs by PCR analysis; assay type: cell-based
C2C12 [3] = experiment: Effect on r(CCUG)300 levels in mouse C2C12 cells at 10 uM by RT-qPCR method; assay type: functional, cell-based
[4] = Binding affinity to r(CCUG)300 RNA (unknown origin) in mouse C2C12 cells transfected with BIN1 assessed as rescue of BIN1 splicing defect after 72 hrs by PCR analysis; assay type: cell-based
C2C12 [5] = experiment: Effect on BIN1 splicing patterns in mouse C2C12 cells at 0.1 to 10 uM by RT-qPCR method; assay type: ADME, cell-based; conditions: c2c12, 10 µM
C2C12 [6] = experiment: Binding affinity to r(CCUG)300 RNA (unknown origin) in mouse C2C12 cells transfected with BIN1 splicing mini gene assessed as rescue of BIN1 splicing defect at 100 nM after 72 hrs by PCR analysis; assay type: cell-based
[7] = Binding affinity to 5-biotin-r(CCUG)12 RNA (unknown origin) assessed as inhibition of r(CCUG)12/His6-tagged MBNL1 complex formation preincubated for 15 mins followed by addition of His6-tagged MBNL1 by TR-FRET assay
[8] = Binding affinity to 5-biotin-r(CCUG)12 RNA (unknown origin) assessed as disruption of 5-biotin-r(CCUG)12/His6-tagged MBNL1 complex incubated for 15 mins by TR-FRET assay

Row | IC50 [7] [nM] | IC50 [8] [nM] | Structure (SMILES) | Activity (C2C12 [2]) [%] | Activity (C2C12 [3]) | Activity (C2C12 [5]) | further results
1 |  |  | C#CCCCC(=O)NC[C@@H]1O[C@@H](O[C@H]2[C@H](O)[C@@H](O[C@@H]3O[C@@H](CO)[C@H](O)[C@@H](N)[C@@H]3O)[C@H](N)C[C@@H]2N)[C@@H](O)[C@H](O)[C@H]1O | 15 | inactive |  | Activity (C2C12 [1]): Non-toxic
2 |  |  | C#CNC(=O)CC(=O)NC[C@H]1O[C@H](O[C@@H]2[C@@H](O)[C@H](O[C@@H]3O[C@@H](CN=[N+]=[N-])[C@H](O)[C@@H](N)[C@@H]3O)[C@@H](N)C[C@H]2N)[C@H](O)[C@@H](O)[C@@H]1O (stereo in doubt) |  |  | Non-toxic | IC50 [4]: 80 nM; Activity (C2C12 [6]): 50%
3 | 700 | 830 | Nc1ccn([C@@H]2C[C@@H](OP(=O)(O)OC[C@H]3O[C@@H](n4cnc5c(N)ncnc54)C[C@@H]3OP(=O)(O)OC[C@H]3O[C@@H](n4cnc5c(=O)[nH]c(N)nc54)C[C@@H]3OP(=O)(O)OC[C@H]3O[C@@H](n4cnc5c(=O)[nH]c(N)nc54)C[C@@H]3OP(=O)(O)OC[C@@H]3O[C@H](n4ccc(N)nc4=O)C[C@H]3OP(=O)(O)OC[C@@H]3O[C@H](n4cnc5c(N)ncnc54)C[C@H]3OP(=O)(O)OC[C@@H]3O[C@H](n4cnc5c(=O)[nH]c(N)nc54)C[C@H]3OP(=O)(O)OC[C@H]3O[C@@H](n4cnc5c(=O)[nH]c(N)nc54)C[C@@H]3O)[C@H](COP(=O)(O)O)O2)c(=O)n1 |  |  |  | 
4 |  |  | CCCN(CC(=O)N(CCC)CC(=O)N(CCC)CC(=O)N(CCC)CC(=O)N(CCCn1cc(CCCC(=O)NC[C@H]2O[C@H](O[C@@H]3[C@@H](O)[C@H](O[C@@H]4O[C@@H](CO)[C@H](O)[C@@H](N)[C@@H]4O)[C@@H](N)C[C@H]3N)[C@H](O)[C@@H](O)[C@@H]2O)nn1)CC(N)=O)C(=O)CNCCCn1cc(CCCC(=O)NC[C@@H]2O[C@@H](O[C@@H]3[C@@H](O)[C@H](O[C@@H]4O[C@@H](CO)[C@H](O)[C@@H](N)[C@@H]4O)[C@@H](N)C[C@H]3N)[C@@H](O)[C@H](O)[C@H]2O)nn1 | 60 | inactive | Non-toxic | 
5 |  |  | C#CCCCC(=O)NC[C@H]1O[C@H](O[C@H]2[C@H](O)[C@@H](O[C@H]3O[C@H](CN=[N+]=[N-])[C@@H](O)[C@H](N)[C@H]3O)[C@H](N)C[C@@H]2N)[C@H](O)[C@@H](O)[C@@H]1O |  | inactive |  | 
6 | 300 | 470 | Nc1ccn([C@@H]2C[C@@H](OP(=O)(O)OC[C@H]3O[C@@H](n4cnc5c(N)ncnc54)C[C@@H]3OP(=O)(O)OC[C@H]3O[C@@H](n4cnc5c(=O)[nH]c(N)nc54)C[C@@H]3OP(=O)(O)OC[C@@H]3O[C@H](n4cnc5c(=O)[nH]c(N)nc54)C[C@H]3OP(=O)(O)OC[C@@H]3O[C@H](n4ccc(N)nc4=O)C[C@H]3OP(=O)(O)OC[C@H]3O[C@@H](n4cnc5c(N)ncnc54)C[C@@H]3OP(=O)(O)OC[C@H]3O[C@@H](n4cnc5c(=O)[nH]c(N)nc54)C[C@@H]3OP(=O)(O)OC[C@H]3O[C@@H](n4cnc5c(=O)[nH]c(N)nc54)C[C@@H]3O)[C@H](COP(=O)(O)O[C@H]3C[C@H](n4cnc5c(=O)[nH]c(N)nc54)O[C@@H]3COP(=O)(O)O[C@@H]3C[C@@H](n4cnc5c(=O)[nH]c(N)nc54)O[C@H]3COP(=O)(O)O[C@@H]3C[C@@H](n4cnc5c(N)ncnc54)O[C@H]3COP(=O)(O)O[C@H]3C[C@H](n4ccc(N)nc4=O)O[C@@H]3COP(=O)(O)O)O2)c(=O)n1 |  |  |  | 

From ChEMBL document CHEMBL3804791, “Comparison of small molecules and oligonucleotides that target a toxic, non-coding RNA” (Bioorg Med Chem Lett, 2016)
